From patent US10112911B2, “Substituted cyanoguanidines as oral anti-virals” (Abbvie Inc, priority 2012, dated 2018)
Read-outs that look alike come from different tables or passages of the source.

Tests used:
HEp-2 cells = test: Cytotoxicity assay (MTT) run in parallel with the antiviral assay; type: cell-based; settings: uninfected HEp-2 cells, 4 days incubation, 50% toxicity dose
Protocol: HEp-2 cells and RSV (Group A, Long Strain) were obtained from the American Type Culture Collection (Manassas, Va.). Cytotoxicity of the compounds was determined in experiments done in parallel with the antiviral assays. To do this, 100 μL of assay medium was added to the wells of HEp-2 cells pretreated with 100 μL serially diluted compounds as described above. After 4 days of incubation, the viability of the cells was determined by the MT assay in the same way as detailed in the “Antiviral Assay” method. Results were expressed as 50% toxicity dose (TD50) values. Compounds were tested to determine both their antiviral and toxicity to determine their therapeutic window. Determination of the EC50 and TD50 of these active compounds were repeated one additional time to confirm the window.

[1] = tested on: RSV (Group A, Long Strain); test: Cytopathetic effect (CPE) protection antiviral assay, MTT readout; type: cell-based; settings: human respiratory syncytial virus, HEp-2, 96 h, HEp-2 cells, 0.2 MOI RSV, read-out: RSV EC50
Protocol: HEp-2 cells and RSV (Group A, Long Strain) were obtained from the American Type Culture Collection (Manassas, Va.).
A cytopathetic effect (CPE) protection assay was performed to determine the ability of a compound to protect the cells from viral infection and thus the CPE induced by viral infection. 96-Well plates were first seeded with […] per well in Dulbecco's modified Eagle's medium (DMEM) containing 10% fetal bovine serum (FBS). One day after the cells were seeded, they were preincubated with serial dilutions of compounds prepared in 100 μL assay medium (DMEM mixed with F12 medium at a 1:1 ratio, supplemented with 2% FBS and 1 mM sodium pyruvate) for 1 hour at 37° C. 100 μL of assay medium containing 0.2 multiplicity of infection (MOI) of RSV was then added to each well of cells. In addition to wells containing infected cells incubated with compounds, each plate also contained replicates of two kinds of controls: (1) Virus control contained cells infected with 0.2 MOI of RSV in assay medium, (2) Uninfected cell control contained cells incubated with assay medium only. After 4 days of incubation at 37° C., the viability of cells was assessed using MTT (Thiazolyl blue tetrazolium bromide, Sigma). A stock solution of MTT, at a concentration of 4 mg/mL in phosphate-buffered saline, was added to all wells at 25 μL per well. Plates were further incubated for 4 hours, and each well was then treated with 50 μL of a solution containing 20% sodium dodecyl sulfate (SDS) and 0.02 N HCl. After an overnight incubation, the plates were measured on a BioTek® microtiter plate reader at wavelengths of 570 nm and 650 nm. The MTT detection is based on the fact that viable (uninfected) cells can reduce the tetrazolium salts into colored formazan products, which can then be quantitated by spectrometry. Based on the spectrometric absorbance of each sample, the percent of protection from CPE, which is an indicator of protection from viral infection, can be calculated for each compound and the 50% effective concentrations (EC50) can be calculated using a nonlinear regression curve fitting equation provided by the GraphPad Prism® 4 software.
Compounds were tested to determine both their antiviral and toxicity to determine their therapeutic window. Determination of the EC50 and TD50 of these active compounds were repeated one additional time to confirm the window.

[2] = 4 days incubation, protection from CPE (Table 1)

Structure (SMILES)	EC50 [1, 2] [µM]	MTT TD50 (HEp-2 cells) [µM]	EC50 ([1]; 4 days, Table 2, determination repeated to confirm window) [µM]
Cc1ccccc1N/C(=N/C#N)N1CCN(c2nc3ccccc3o2)CC1C(C)C (stereo not shown) [Example 1.4, 4-(1,3-benzoxazol-2-yl)-N′-cyano-2-isopropyl-N-(2-methylphenyl)piperazine-1-carboximidamide]	1.14	28.85	1.14
Cc1ccc2ccc(N3CCN(C(=NC#N)Nc4ccccc4C)C(C(C)C)C3)nc2n1 (stereo not shown) [Example 1.68, N′-cyano-2-isopropyl-4-(7-methyl-1,8-naphthyridin-2-yl)-N-(2-methylphenyl)piperazine-1-carboximidamide]	> 10		
Cc1ccccc1N/C(=N/C#N)N1CCN(c2cnc3cc(F)c(F)cc3n2)CC1C(C)C (stereo not shown) [Example 1.51, N′-cyano-4-(6,7-difluoroquinoxalin-2-yl)-2-isopropyl-N-(2-methylphenyl)piperazine-1-carboximidamide]	0.69		
CC(C)C1CN(c2cnc3ccccc3n2)CCN1/C(=N\C#N)Nc1cc(C(C)(C)C)nn1C (stereo not shown) [Example 1.36, N-(3-tert-butyl-1-methyl-1H-pyrazol-5-yl)-N′-cyano-2-isopropyl-4-(quinoxalin-2-yl)piperazine-1-carboximidamide]	> 6.6		
Cc1ccccc1NC(=NC#N)N1CCN(c2cncc(N3CCOCC3)n2)CC1C(C)C (stereo not shown) [Example 1.63, N′-cyano-2-isopropyl-N-(2-methylphenyl)-4-[6-(morpholin-4-yl)pyrazin-2-yl]piperazine-1-carboximidamide]	> 10		
CC(C)C1CN(c2cnc3ccccc3n2)CCN1/C(=N\C#N)Nc1ccc(C(F)(F)F)cc1 (stereo not shown) [Example 1.24, N′-cyano-2-isopropyl-4-(quinoxalin-2-yl)-N-[4-(trifluoromethyl)phenyl]piperazine-1-carboximidamide]	> 6.68		
Cc1ccccc1N/C(=N/C#N)N1CCN(c2cnc3ccc(F)cc3n2)CC1C(C)C (stereo not shown) [Example 1.60, N′-cyano-4-(7-fluoroquinoxalin-2-yl)-2-isopropyl-N-(2-methylphenyl)piperazine-1-carboximidamide]	1.05		
Cc1cccc(F)c1N/C(=N/C#N)N1CCN(c2cnc3ccccc3n2)CC1C(C)C (stereo not shown) [Example 1.33, N′-cyano-N-(2-fluoro-6-methylphenyl)-2-isopropyl-4-(quinoxalin-2-yl)piperazine-1-carboximidamide]	0.3		
Cc1cc2ncc(N3CCN(/C(=N\C#N)Nc4ccccc4C)C(C(C)C)C3)nc2cc1C (stereo not shown) [Example 1.50, N′-cyano-4-(6,7-dimethylquinoxalin-2-yl)-2-isopropyl-N-(2-methylphenyl)piperazine-1-carboximidamide]	> 3.2		
Cc1ccccc1N/C(=N/C#N)N1CCN(c2cnc3cc(C(F)(F)F)ccc3n2)CC1C(C)C (stereo not shown) [Example 1.57, N′-cyano-2-isopropyl-N-(2-methylphenyl)-4-[6-(trifluoromethyl)quinoxalin-2-yl]piperazine-1-carboximidamide]	0.29		
Cc1cc(F)c(F)cc1N/C(=N/C#N)N1CCN(c2cnc3ccccc3n2)CC1C(C)C (stereo not shown) [Example 1.34, N′-cyano-N-(4,5-difluoro-2-methylphenyl)-2-isopropyl-4-(quinoxalin-2-yl)piperazine-1-carboximidamide]	> 3.1		
Cc1cccc(C)c1N/C(=N/C#N)N1CCN(c2cnc3ccccc3n2)CC1C(C)C (stereo not shown) [Example 1.17, N′-cyano-N-(2,6-dimethylphenyl)-2-isopropyl-4-(quinoxalin-2-yl)piperazine-1-carboximidamide]	0.54		
Cc1ccc2ncc(N3CCN(/C(=N\C#N)Nc4ccccc4C)C(C(C)C)C3)nc2c1 (stereo not shown) [Example 1.56, N′-cyano-2-isopropyl-N-(2-methylphenyl)-4-(7-methylquinoxalin-2-yl)piperazine-1-carboximidamide]	1.6		
Cc1cccc(N/C(=N/C#N)N2CCN(c3cnc4ccccc4n3)CC2C(C)C)c1 (stereo not shown) [Example 1.22, N′-cyano-2-isopropyl-N-(3-methylphenyl)-4-(quinoxalin-2-yl)piperazine-1-carboximidamide]	0.4		
CC(C)C1CN(c2cnc3ccccc3n2)CCN1/C(=N\C#N)Nc1ccc2c(c1)OCO2 (stereo not shown) [Example 1.14, N-(1,3-benzodioxol-5-yl)-N′-cyano-2-isopropyl-4-(quinoxalin-2-yl)piperazine-1-carboximidamide]	> 10		
Cc1ccc(F)cc1N/C(=N/C#N)N1CCN(c2cnc3ccccc3n2)CC1C(C)C (stereo not shown) [Example 1.31, N′-cyano-N-(5-fluoro-2-methylphenyl)-2-isopropyl-4-(quinoxalin-2-yl)piperazine-1-carboximidamide]	2		
Cc1ccccc1NC(=NC#N)N1CCN(c2ccc3nccnc3n2)CC1C(C)C (stereo not shown) [Example 1.65, N′-cyano-2-isopropyl-N-(2-methylphenyl)-4-(pyrido[2,3-b]pyrazin-6-yl)piperazine-1-carboximidamide]	5.9		
Cc1ccccc1N/C(=N/C#N)N1CCN(c2cnc3ccccc3n2)CC1CC(C)C (stereo not shown) [Example 1.37, N′-cyano-2-isobutyl-N-(2-methylphenyl)-4-(quinoxalin-2-yl)piperazine-1-carboximidamide]	0.4		
Cc1ccccc1NC(=NC#N)N1CCN(c2nc(C)c(C)c(NC3CCCCC3)n2)CC1C(C)C (stereo not shown) [Example 1.64, N′-cyano-4-[4-(cyclohexylamino)-5,6-dimethylpyrimidin-2-yl]-2-isopropyl-N-(2-methylphenyl)piperazine-1-carboximidamide]	> 10		

Further lines, with some results ahead:

EC50 [1, 2] [µM]	Structure (SMILES)	MTT TD50 (HEp-2 cells) [µM]	EC50 ([1]; 4 days, Table 2, determination repeated to confirm window) [µM]
> 3.2	Cc1ccccc1N/C(=N/C#N)N1CCN(c2cnc3ccccc3n2)CC1CC1CCCCC1 (stereo not shown) [Example 1.49, N′-cyano-2-(cyclohexylmethyl)-N-(2-methylphenyl)-4-(quinoxalin-2-yl)piperazine-1-carboximidamide]		
> 10	CC(C)C1CN(c2cnc3ccccc3n2)CCN1/C(=N\C#N)Nc1ccc(Cl)cc1 (stereo not shown) [Example 1.15, N-(4-chlorophenyl)-N′-cyano-2-isopropyl-4-(quinoxalin-2-yl)piperazine-1-carboximidamide]		
> 3.16	Cc1c(F)cccc1N/C(=N/C#N)N1CCN(c2cnc3ccccc3n2)CC1C(C)C (stereo not shown) [Example 1.29, N′-cyano-N-(3-fluoro-2-methylphenyl)-2-isopropyl-4-(quinoxalin-2-yl)piperazine-1-carboximidamide]		
> 10	Cc1ccccc1N/C(=N/C#N)N1CCN(c2nc3ccccc3nc2C(F)(F)F)CC1C(C)C (stereo not shown) [Example 1.53, N′-cyano-2-isopropyl-N-(2-methylphenyl)-4-[3-(trifluoromethyl)quinoxalin-2-yl]piperazine-1-carboximidamide]		
> 10	Cc1ccccc1N/C(=N/C#N)N1CCN(c2cnc3ccccc3n2)CC1C(C)(C)C (stereo not shown) [Example 1.46, 2-tert-butyl-N′-cyano-N-(2-methylphenyl)-4-(quinoxalin-2-yl)piperazine-1-carboximidamide]		
> 10	Cc1ccccc1NC(=NC#N)N1CCN(c2cnc3ccccc3n2)C(C(C)C)C1 (stereo not shown) [Example 1.70, N′-cyano-3-isopropyl-N-(2-methylphenyl)-4-(quinoxalin-2-yl)piperazine-1-carboximidamide]		
> 10	Cc1ccccc1N/C(=N/C#N)N1CCN(c2cnc3ccccc3n2)CC12CC2 [Example 1.45, N′-cyano-N-(2-methylphenyl)-7-(quinoxalin-2-yl)-4,7-diazaspiro[2.5]octane-4-carboximidamide]		
> 10	Cc1ccc(N/C(=N/C#N)N2CCN(c3cnc4ccccc4n3)CC2C(C)C)cc1 (stereo not shown) [Example 1.16, N′-cyano-2-isopropyl-N-(4-methylphenyl)-4-(quinoxalin-2-yl)piperazine-1-carboximidamide]		
> 10	Cc1ccccc1CN/C(=N/C#N)N1CCN(c2cnc3ccccc3n2)CC1C(C)C (stereo not shown) [Example 1.35, N′-cyano-2-isopropyl-N-(2-methylbenzyl)-4-(quinoxalin-2-yl)piperazine-1-carboximidamide]		
> 10	Cc1ccccc1N/C(=N/C#N)N1CCN(c2cnc3ccccc3n2)CC12CCC2 [Example 1.43, N′-cyano-N-(2-methylphenyl)-8-(quinoxalin-2-yl)-5,8-diazaspiro[3.5]nonane-5-carboximidamide]		
